The record followed here is patent US7279497B2, “Benzopyran derivatives substituted with secondary amines including imidazole, their preparation and pharmaceutical compositions containing them” (Korea Research Institute of Chemical Technology, priority 2002, dated 2007).

Molecules are shown by their SMILES.

For one series, the system named is SPF SD rats. Particulars: rat, in vivo, po.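 Also: Six-week-old animals, two per group, followed across an observation period.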
Series [1] concerns HUVECs (Human umbilical vein endothelial cells). In words: Inhibitory effects on HUVEC tube formation.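 As to tube formation: from minus no inhibition up to plus-plus-plus complete inhibition versus vehicle.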 The class given is cell-based. How it is done: The Inhibitory effects of the compounds of the formula 1 on angiogenesis were meassured by the vascular tube formation assay of HUVECs (Human umbilical vein endothelial cells), which is one of the major angiogenic steps.
HUVECs were isolated from human umbilical vein, and cultured. HUVECs within passage 5 from confluent cultures were detached, and plated onto a layer of a bFGF (basic fibroblast growth factor)-reduced and polymerized Matrigel. Matrigel cultures were incubated with or without the compounds of formula 1, and the changes of cell morphology were captured through a phase contrast microscope and photographed.

Regarding `COC(OC)[C@@]1(C)Oc2ccc([N+](=O)[O-])cc2[C@@H](N(Cc2ncc[nH]2)c2ccccc2C(C)C)[C@@H]1O` [Example 10, (2S,3S,4R)-3,4-dihydro-2-dimethoxymethyl-3-hydroxy-2-methyl-6-nitro-4-[N-(2-isopropylphenyl)-N-(1H-imidazol-2-ylmethyl)amino]-2H-1-benzopyran], in the series with SPF SD rats, the “clinical symptoms, body weight and mortality” value (“clinical symptoms” for short) is given as “no significant changes”. Moreover, in series [1] (50 uM), the “inhibitory effect on HUVEC tube formation” value is on record as “strongly inhibited”. The Tube formation result in series [1] (50 μM) is on record as “++”.
In the case of `COC(OC)[C@]1(C)Oc2ccc([N+](=O)[O-])cc2[C@H](N(Cc2ncc[nH]2)c2cccc(C)c2C)[C@H]1O` [Example 12, (2R,3R,4S)-3,4-dihydro-2-dimethoxymethyl-3-hydroxy-2-methyl-6-nitro-4-[N-(2,3-dimethylphenyl)-N-(1H-imidazol-2-ylmethyl)amino]-2H-1-benzopyran], the “clinical symptoms” value with SPF SD rats is “no significant changes”. Moreover, the Tube formation result in series [1] (50 μM) is given as “+”.
The matching figures for `COC(OC)[C@]1(C)Oc2ccc([N+](=O)[O-])cc2[C@H](N(Cc2ncc[nH]2)c2ccc(Br)cc2)[C@H]1O` [Example 13, (2R,3R,4S)-3,4-dihydro-2-dimethoxymethyl-3-hydroxy-2-methyl-6-nitro-4-[N-(4-bromophenyl)-N-(1H-imidazol-2-ylmethyl)amino]-2H-1-benzopyran]: “no significant changes” and “+”.
Regarding `COC(OC)[C@@]1(C)Oc2ccc(C#N)cc2[C@@H](N(Cc2ncc[nH]2)c2ccc(Cl)cc2)[C@@H]1O` [Example 22, (2S,3S,4R)-6-cyano-3,4-dihydro-2-dimethoxymethyl-3-hydroxy-2-methyl-4-[N-(4-chlorophenyl)-N-(1H-imidazol-2-ylmethyl)amino]-2H-1-benzopyran], the “clinical symptoms” value with SPF SD rats is reported as “no significant changes”. Moreover, the figures for the Tube formation entry in series [1] (10 μM) and in series [1] (100 μM) were “+” and “++”, respectively.
As for `COC(OC)[C@]1(C)Oc2ccc(N)cc2[C@H](N(Cc2ncc[nH]2)c2ccc(OC(F)(F)F)cc2)[C@H]1O` [Example 26, (2R,3R,4S)-6-amino-3,4-dihydro-2-dimethoxymethyl-3-hydroxy-2-methyl-4-[N-(4-trifluoromethoxyphenyl)-N-(1H-imidazol-2-ylmethyl)amino]-2H-1-benzopyran], the “clinical symptoms” value with SPF SD rats is “no significant changes”. Besides, in series [1] (50 μM), the Tube formation entry is “+”.
The matching figures for `COC(OC)[C@]1(C)Oc2ccc(N)cc2[C@H](N(Cc2ncc[nH]2)c2cccc(C)c2C)[C@H]1O` [Example 27, (2R,3R,4S)-6-amino-3,4-dihydro-2-dimethoxymethyl-3-hydroxy-2-methyl-4-[N-(2,3-dimethylphenyl)-N-(1H-imidazol-2-ylmethyl)amino]-2H-1-benzopyran]: “no significant changes” and “+/−”.
For `COc1ccc(N(Cc2ncc[nH]2)[C@H]2c3cc(N)ccc3O[C@@](C)(C(OC)OC)[C@@H]2O)cc1` [Example 28, (2R,3R,4S)-6-amino-3,4-dihydro-2-dimethoxymethyl-3-hydroxy-2-methyl-4-[N-(4-methoxyphenyl)-N-(1H-imidazol-2-ylmethyl)amino]-2H-1-benzopyran], in that order: “no significant changes” and “+”.
The matching figures for `COC(OC)[C@]1(C)Oc2ccc(N)cc2[C@H](N(Cc2ncc[nH]2)c2ccc(Br)cc2)[C@H]1O` [Example 29, (2R,3R,4S)-6-amino-3,4-dihydro-2-dimethoxymethyl-3-hydroxy-2-methyl-4-[N-(4-bromophenyl)-N-(1H-imidazol-2-ylmethyl)amino]-2H-1-benzopyran]: “no significant changes” and “+”.
